Data taken from ChEMBL document CHEMBL4834449, “Anti-inflammatory Eudesmane Sesquiterpenoids from Artemisia hedinii” (2021).
The source made the active and inactive calls. No cut-off for these calls is given here.

Key:
[1] = system: BMDM; assay: Antiinflammatory activity in LPS-induced in C57 mouse BMDM cells assessed as reduction in IFN-gamma level at 10 to 20 uM by ELISA (Rvb < 7.8 pg/ml); assay type: functional; conditions: dose 10-20 µM
[2] = system: BMDM; assay: Antiinflammatory activity in LPS-induced in C57 mouse BMDM cells assessed as reduction in IL-12 mRNA expression at 20 uM incubated for 12 hrs by qRT-PCR analysis; assay type: functional, cell-based
[3] = system: BMDM; assay: Antiinflammatory activity in LPS-induced in C57 mouse BMDM cells assessed as reduction in TNFalpha level by ELISA; assay type: functional, cell-based
[4] = system: BMDM; assay: Antiinflammatory activity in LPS-induced in C57 mouse BMDM cells assessed as reduction in TNFalpha mRNA expression at 20 uM incubated for 12 hrs by qRT-PCR analysis; assay type: functional, cell-based
[5] = system: BMDM; assay: Antiinflammatory activity in LPS-induced in C57 mouse BMDM cells assessed as reduction in IL-6 level by ELISA; assay type: functional, cell-based
[6] = system: BMDM; assay: Antiinflammatory activity in LPS-induced in C57 mouse BMDM cells assessed as reduction in IFN-gamma level at 5 to 20 uM by ELISA (Rvb < 7.8 pg/ml); assay type: functional; conditions: dose 5-20 µM

SMILES	Activity [1]	inhibition [1]	inhibition [2]	inhibition [3]	inhibition [4]	inhibition [5]	Activity [6]	inhibition [6]
CC(=O)O[C@H]1C[C@@H]([C@@](O)(CO)C(=O)O)CC2=C(C)CCC[C@@]21C	<7.8 pg/mL	Dose-Dependent Effect	Active	Dose-Dependent Effect	Active	Dose-Dependent Effect	–	–
CC(=O)O[C@H]1C[C@@H]([C@](O)(CO)C(=O)O)CC2=C(C)CCC[C@@]21C	–	–	Active	–	Active	–	–	–
C=C(C(=O)O)[C@H]1CC2=C(C)CCC[C@]2(C)[C@@H](O)C1	<7.8 pg/mL	Dose-Dependent Effect	Active	Dose-Dependent Effect	Active	Dose-Dependent Effect	–	–
C=C(C(=O)O)[C@H]1CC2=C(CO)CCC[C@]2(C)[C@@H](OC(C)=O)C1	–	–	Active	–	Active	–	–	–
C=C(C(=O)O)[C@@H]1CC[C@@]2(C)CCC[C@@](C)(O)[C@@H]2C1	–	–	Active	–	Active	–	–	–
C=C(C(=O)O)[C@H]1C=C2C(C)=CCC[C@]2(C)[C@@H](OC(C)=O)C1	–	–	Active	–	Active	–	–	–
C=C(C(=O)O)[C@H]1CC2=C(C=O)CCC[C@]2(C)[C@@H](O)C1	–	–	Active	–	Active	–	–	–
C=C(C(=O)O)[C@H]1CC2=C(C)[C@@H](O)CC[C@]2(C)[C@@H](OC(C)=O)C1	–	–	Active	–	Active	–	–	–
C=C(C(=O)O)[C@@H]1C[C@H](OC(C)=O)[C@@]2(C)CCCC(=C)[C@@]2(O)C1	–	–	Active	–	Active	–	–	–
C=C(C(=O)O)[C@H]1CC2=C(C)C(=O)CC[C@]2(C)[C@@H](OC(C)=O)C1	–	–	Active	Dose-Dependent Effect	Active	Dose-Dependent Effect	<7.8 pg/mL	Dose-Dependent Effect
C=C(C(=O)O)[C@H]1C=C2C(C)=CCC[C@]2(C)[C@@H](O)C1	–	–	Active	Dose-Dependent Effect	Active	Dose-Dependent Effect	<7.8 pg/mL	Dose-Dependent Effect
C[C@]12CCC(=O)C=C1[C@H](O)[C@H]([C@](C)(O)CO)CC2	–	–	Active	Dose-Dependent Effect	Active	Dose-Dependent Effect	<7.8 pg/mL	Dose-Dependent Effect
C=C(C(=O)O)[C@@H]1C[C@H](OC(C)=O)[C@@]2(C)CCCC(=C)[C@]2(O)C1	–	–	Active	Dose-Dependent Effect	Active	Dose-Dependent Effect	<7.8 pg/mL	Dose-Dependent Effect
C=C(C(=O)O)[C@H]1CC2=C(C)[C@H](O)CC[C@]2(C)[C@@H](OC(C)=O)C1	–	–	Active	–	Active	–	–	–
C=C(C(=O)O)[C@H]1CC2=C(C)[C@H](OCC)CC[C@]2(C)[C@@H](OC(C)=O)C1	–	–	Active	–	Active	–	–	–
C=C(C(=O)O)[C@H]1CC2=C(C)CCC[C@]2(C)[C@@H](OC(C)=O)C1	–	–	Active	–	Active	–	–	–
C=C(C(=O)O)[C@H]1CC2=C(C(=O)O)CCC[C@]2(C)[C@@H](OC(C)=O)C1	–	–	Active	–	Active	–	–	–
C=C(C(=O)O)[C@H]1CC2=C(C)[C@H](OC)CC[C@]2(C)[C@@H](OC(C)=O)C1	–	–	Active	–	Active	–	–	–
C=C(C(=O)O)[C@@H]1C[C@H](O)[C@@]2(C)CCCC(=C)[C@]2(O)C1	–	–	Active	–	Active	–	–	–
C=C(C(=O)O)[C@H]1CC2=C(C)C(=O)CC[C@]2(C)[C@@H](O)C1	–	–	Active	–	Active	–	–	–
